According to ChEMBL document CHEMBL5465560, “Selectivity Literature for EUbOPEN Chemogenomic Library” (2024):
Blank lines part the entries; values can stand above or below the compound they belong to.

What was measured:
[1] = target: Mitogen-activated protein kinase 10 (Homo sapiens, UniProt P53779); assay: Selectivity interaction (Kinase panel (Z-LYTE Assay)) EUB0001632a MAPK10; details: at 10 µM
[2] = target: Protein kinase C beta type (Homo sapiens, UniProt P05771); assay: Selectivity interaction (Upstate Kinase Profiler service (Millipore)) EUB0000056c PRKCB; details: at 1 µM
Chain of Protein kinase C beta type (P05771 2-671 limits assumed): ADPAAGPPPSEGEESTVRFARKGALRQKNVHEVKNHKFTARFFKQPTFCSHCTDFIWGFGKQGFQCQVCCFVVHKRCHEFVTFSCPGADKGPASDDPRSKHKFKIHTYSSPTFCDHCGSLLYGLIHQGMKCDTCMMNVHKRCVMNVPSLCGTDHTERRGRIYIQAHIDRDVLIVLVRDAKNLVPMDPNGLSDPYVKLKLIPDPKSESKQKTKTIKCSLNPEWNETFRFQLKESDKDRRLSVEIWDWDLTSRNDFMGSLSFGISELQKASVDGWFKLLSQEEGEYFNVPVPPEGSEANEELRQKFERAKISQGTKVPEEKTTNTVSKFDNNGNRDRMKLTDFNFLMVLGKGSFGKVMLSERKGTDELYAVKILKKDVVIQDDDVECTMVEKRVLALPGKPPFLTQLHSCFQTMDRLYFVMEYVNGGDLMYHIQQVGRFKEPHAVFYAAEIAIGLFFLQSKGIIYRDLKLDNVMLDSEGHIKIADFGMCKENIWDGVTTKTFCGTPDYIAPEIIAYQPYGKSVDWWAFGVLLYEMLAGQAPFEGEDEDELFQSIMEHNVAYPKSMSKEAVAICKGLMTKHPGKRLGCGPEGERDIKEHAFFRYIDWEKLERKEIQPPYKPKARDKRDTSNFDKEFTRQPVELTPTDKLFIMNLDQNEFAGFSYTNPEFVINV

[3] = target: Proto-oncogene tyrosine-protein kinase receptor Ret (Homo sapiens, UniProt P07949); assay: Selectivity interaction (Kinase panel (Invitrogen)) EUB0000639a RET; details: at 200 nM
Chain of Proto-oncogene tyrosine-protein kinase receptor Ret (P07949 whole entry): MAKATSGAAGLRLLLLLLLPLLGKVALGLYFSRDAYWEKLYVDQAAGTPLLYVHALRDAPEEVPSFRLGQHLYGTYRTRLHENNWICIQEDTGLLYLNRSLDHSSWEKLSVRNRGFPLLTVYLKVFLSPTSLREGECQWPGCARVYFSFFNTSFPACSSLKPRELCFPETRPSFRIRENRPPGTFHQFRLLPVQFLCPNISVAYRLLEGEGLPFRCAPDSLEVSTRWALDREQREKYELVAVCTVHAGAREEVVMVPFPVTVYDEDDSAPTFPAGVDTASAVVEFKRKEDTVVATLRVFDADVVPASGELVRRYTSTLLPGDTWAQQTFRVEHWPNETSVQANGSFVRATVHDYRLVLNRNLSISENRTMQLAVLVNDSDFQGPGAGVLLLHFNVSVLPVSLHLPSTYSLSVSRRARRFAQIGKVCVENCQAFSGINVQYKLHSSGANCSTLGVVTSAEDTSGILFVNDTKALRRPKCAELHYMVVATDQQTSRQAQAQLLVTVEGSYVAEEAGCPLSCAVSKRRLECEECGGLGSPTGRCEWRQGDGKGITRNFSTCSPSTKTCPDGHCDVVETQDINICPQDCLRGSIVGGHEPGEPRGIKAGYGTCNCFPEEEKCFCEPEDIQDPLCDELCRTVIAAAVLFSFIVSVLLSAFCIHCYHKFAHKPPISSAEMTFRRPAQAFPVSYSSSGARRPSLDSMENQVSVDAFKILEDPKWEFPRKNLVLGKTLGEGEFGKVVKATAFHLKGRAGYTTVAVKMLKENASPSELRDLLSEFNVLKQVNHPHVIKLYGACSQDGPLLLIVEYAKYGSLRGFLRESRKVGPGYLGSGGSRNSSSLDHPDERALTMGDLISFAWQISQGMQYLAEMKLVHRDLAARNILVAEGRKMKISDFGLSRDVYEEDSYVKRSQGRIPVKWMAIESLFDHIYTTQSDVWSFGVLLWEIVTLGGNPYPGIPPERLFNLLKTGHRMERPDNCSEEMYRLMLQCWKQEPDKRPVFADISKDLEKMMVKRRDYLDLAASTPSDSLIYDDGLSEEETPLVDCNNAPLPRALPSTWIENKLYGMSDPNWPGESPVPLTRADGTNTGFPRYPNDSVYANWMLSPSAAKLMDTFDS

[4] = target: T1, Serine/threonine-protein kinase 3 (Homo sapiens) (UniProt Q13188); assay: Selectivity interaction (KinomeScan (DiscoverX)) EUB0001049a STK3; details: at 1 µM
T1 sequence (whole entry): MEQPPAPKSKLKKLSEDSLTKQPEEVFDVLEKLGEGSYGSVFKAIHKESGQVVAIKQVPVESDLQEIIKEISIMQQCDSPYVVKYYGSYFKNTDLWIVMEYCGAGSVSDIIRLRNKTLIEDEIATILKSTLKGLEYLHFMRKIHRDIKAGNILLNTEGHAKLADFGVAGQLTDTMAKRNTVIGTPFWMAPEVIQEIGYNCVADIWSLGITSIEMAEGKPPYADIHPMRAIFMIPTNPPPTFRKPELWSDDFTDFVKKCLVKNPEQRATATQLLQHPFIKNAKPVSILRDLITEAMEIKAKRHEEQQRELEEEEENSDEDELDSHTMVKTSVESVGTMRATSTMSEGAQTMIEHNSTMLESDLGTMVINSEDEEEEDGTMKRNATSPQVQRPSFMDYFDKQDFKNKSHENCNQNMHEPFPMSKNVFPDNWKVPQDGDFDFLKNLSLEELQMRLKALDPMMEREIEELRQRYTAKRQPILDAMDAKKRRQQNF

[5] = target: Serine/threonine-protein kinase PLK2 (Homo sapiens, UniProt Q9NYY3); assay: Selectivity interaction (Ambit KINOMEscan and KiNATiv profiling in Jurkat cells) EUB0000090b PLK2; format: cell-based; details: at 1 µM
Chain of Serine/threonine-protein kinase PLK2 (Q9NYY3 whole entry, looked up): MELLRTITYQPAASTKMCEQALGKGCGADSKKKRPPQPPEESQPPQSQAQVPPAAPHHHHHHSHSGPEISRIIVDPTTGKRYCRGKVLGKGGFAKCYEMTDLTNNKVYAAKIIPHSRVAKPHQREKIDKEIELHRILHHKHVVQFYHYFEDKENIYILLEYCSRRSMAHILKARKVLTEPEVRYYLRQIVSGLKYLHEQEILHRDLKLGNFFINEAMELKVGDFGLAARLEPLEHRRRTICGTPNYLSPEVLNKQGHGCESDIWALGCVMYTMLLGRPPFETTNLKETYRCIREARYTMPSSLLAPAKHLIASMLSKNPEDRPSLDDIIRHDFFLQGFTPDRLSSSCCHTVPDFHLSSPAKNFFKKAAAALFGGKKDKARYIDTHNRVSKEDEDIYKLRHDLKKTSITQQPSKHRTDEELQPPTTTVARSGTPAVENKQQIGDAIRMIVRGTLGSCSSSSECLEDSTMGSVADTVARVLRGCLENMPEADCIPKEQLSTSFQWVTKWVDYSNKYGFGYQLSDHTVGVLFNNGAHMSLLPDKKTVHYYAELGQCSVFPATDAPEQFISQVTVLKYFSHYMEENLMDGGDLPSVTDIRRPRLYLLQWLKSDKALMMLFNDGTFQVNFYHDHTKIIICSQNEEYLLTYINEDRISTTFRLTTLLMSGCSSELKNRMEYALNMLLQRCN

[6] = target: Aurora kinase B (Homo sapiens, UniProt Q96GD4); assay: Selectivity interaction (KinomeScan (DiscoverX)) EUB0000655a AURKB; details: at 10 µM
Chain of Aurora kinase B (Q96GD4 whole entry): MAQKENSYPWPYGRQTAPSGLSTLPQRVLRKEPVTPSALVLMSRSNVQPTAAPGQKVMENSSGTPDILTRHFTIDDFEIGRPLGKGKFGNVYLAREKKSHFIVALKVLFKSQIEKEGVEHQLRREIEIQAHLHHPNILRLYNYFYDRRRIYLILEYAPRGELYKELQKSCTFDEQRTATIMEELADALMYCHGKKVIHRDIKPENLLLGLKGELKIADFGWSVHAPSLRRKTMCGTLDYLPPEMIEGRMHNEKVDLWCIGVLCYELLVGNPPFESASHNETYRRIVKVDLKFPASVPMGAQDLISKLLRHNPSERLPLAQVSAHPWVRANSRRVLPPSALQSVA

[7] = system: T2, Receptor-type tyrosine-protein kinase FLT3 (Homo sapiens), P36888 [N841I]; assay: Selectivity interaction (KinomeScan (DiscoverX)) EUB0000092b FLT3; details: at 10 µM
T2 sequence (whole entry): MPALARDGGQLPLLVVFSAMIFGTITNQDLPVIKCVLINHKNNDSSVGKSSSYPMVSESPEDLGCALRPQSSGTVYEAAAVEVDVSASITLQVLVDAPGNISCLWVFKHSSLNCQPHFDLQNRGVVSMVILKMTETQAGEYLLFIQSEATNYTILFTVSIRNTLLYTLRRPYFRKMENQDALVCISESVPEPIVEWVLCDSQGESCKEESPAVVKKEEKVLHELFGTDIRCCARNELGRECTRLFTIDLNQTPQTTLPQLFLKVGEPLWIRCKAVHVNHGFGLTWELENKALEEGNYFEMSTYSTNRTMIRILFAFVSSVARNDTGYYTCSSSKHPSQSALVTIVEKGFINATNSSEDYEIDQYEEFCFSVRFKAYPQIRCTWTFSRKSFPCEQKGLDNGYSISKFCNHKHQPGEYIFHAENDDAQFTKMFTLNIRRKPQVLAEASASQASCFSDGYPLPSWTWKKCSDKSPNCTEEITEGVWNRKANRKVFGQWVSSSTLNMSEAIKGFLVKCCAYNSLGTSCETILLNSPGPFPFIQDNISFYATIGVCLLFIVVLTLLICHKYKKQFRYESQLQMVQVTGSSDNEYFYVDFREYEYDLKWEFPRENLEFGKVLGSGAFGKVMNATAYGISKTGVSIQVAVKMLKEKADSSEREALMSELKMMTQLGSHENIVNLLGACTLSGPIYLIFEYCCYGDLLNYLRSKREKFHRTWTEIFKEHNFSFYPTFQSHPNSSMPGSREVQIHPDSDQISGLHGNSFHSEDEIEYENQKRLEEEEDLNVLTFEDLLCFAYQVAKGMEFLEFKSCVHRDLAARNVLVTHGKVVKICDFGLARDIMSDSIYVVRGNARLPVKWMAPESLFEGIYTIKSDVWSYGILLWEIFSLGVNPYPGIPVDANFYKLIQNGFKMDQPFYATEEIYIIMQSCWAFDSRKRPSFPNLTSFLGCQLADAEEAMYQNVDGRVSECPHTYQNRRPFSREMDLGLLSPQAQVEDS

[8] = target: T3, Ribosomal protein S6 kinase delta-1 (Homo sapiens) (UniProt Q96S38); assay: Selectivity interaction (ActivX KiNativ screen (ex vivo kinase selectivity in human PBMCs)) EUB0001619a RPS6KC1; format: cell-based; details: PBMC, at 1 µM
T3 sequence (whole entry): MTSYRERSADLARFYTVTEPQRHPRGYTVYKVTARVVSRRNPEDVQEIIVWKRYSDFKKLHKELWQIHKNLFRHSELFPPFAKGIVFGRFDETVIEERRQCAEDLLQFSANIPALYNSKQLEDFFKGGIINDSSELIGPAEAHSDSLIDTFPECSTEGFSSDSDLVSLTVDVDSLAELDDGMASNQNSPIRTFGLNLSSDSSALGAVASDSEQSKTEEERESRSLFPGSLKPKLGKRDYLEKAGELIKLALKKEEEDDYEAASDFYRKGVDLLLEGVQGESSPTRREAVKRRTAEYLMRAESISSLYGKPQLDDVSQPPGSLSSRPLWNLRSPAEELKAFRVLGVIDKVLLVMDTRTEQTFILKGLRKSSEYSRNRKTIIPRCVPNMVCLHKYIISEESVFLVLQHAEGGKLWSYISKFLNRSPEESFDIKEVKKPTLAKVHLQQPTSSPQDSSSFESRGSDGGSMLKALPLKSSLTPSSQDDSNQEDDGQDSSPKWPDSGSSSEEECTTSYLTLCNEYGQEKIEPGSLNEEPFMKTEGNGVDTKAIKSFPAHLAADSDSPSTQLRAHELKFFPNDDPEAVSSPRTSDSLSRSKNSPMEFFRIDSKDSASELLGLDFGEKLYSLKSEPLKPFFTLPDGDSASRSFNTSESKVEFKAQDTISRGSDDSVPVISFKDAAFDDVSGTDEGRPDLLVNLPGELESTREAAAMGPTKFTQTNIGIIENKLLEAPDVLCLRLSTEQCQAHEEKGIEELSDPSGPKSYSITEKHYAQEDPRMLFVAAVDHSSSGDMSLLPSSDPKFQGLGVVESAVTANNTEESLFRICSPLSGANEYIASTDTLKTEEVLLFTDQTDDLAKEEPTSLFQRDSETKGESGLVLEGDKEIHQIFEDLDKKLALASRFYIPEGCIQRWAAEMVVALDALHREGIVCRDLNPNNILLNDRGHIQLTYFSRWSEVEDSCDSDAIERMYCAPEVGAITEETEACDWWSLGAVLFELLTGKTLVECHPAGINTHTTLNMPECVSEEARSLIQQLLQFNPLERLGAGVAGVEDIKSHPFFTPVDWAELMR

Chain of Mitogen-activated protein kinase 10 (P53779 whole entry): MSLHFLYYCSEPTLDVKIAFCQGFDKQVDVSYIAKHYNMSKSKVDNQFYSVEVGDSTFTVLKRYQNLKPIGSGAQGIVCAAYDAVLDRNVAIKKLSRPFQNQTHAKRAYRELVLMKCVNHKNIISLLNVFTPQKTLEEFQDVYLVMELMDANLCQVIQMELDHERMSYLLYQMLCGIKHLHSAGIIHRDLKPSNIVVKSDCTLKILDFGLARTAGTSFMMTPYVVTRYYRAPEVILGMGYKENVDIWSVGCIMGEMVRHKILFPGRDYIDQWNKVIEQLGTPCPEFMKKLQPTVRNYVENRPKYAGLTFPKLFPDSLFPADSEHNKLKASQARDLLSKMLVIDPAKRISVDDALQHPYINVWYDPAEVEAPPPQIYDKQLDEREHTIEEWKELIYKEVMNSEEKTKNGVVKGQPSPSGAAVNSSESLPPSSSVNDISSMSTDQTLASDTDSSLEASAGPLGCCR

% of control [1]: 3.04%
Compound: Cn1cc(-n2cnc3c(NCc4nc5cc(Cl)c(Cl)cc5[nH]4)nc(N4CCOCC4)nc32)cn1

% of inhibition [2]: 13%
Compound: Cc1ccc(-c2ccc3c(ccc4sc5c(c43)NC[C@@H](C)NC5=O)n2)cn1

% of inhibition [3]: 66%
Compound: CC[C@@H]1[C@H](F)C(=O)N[C@@H]1COc1nccc2cc(C(N)=O)c(OC)cc12 [ZIMLOVISERTIB]

Compound: COc1cc(Nc2nc(C)cc(-c3cnn4nc(OC)ccc34)n2)cc(C(F)(F)F)c1
% of control [4]: 100%

Compound: CN(C)C/C=C/C(=O)Nc1ccc(C(=O)N2CCCC(Nc3ncc(Cl)c(-c4c[nH]c5ccccc45)n3)C2)cc1 (stereo not drawn)
% of control [5]: 89%

Compound: CN(C)CCOc1ccc(-c2nc(-c3ccncc3)c(-c3ccc4c(c3)CC/C4=N\O)[nH]2)cc1
% of control [6]: 100%

Compound: CCC(=O)N1CCN(c2ccc(-n3c(=O)ccc4cnc5ccc(-c6cnc7ccccc7c6)cc5c43)cc2C(F)(F)F)CC1
% of control [7]: 8.8%

Compound: N#Cc1cccc(-c2c[nH]c3ncnc(N4CCOCC4)c23)c1
% of inhibition [8]: -2%
